Patent US20250099431A1, “GLP-1R MODULATING COMPOUNDS” (priority 2020, published 2025)
Like-named read-outs stand apart in the source and are kept apart here.

How the values were obtained:
GLP-1R = GLP-1R (Homo sapiens (Human), UniProt P43220); experiment: GLP-1R activation: cAMP increase in CHO cells stably expressing GLP-1R; type: cell-based; details: 10 point dose response, 30 minutes incubation at 37° C.
Procedure: GLP-1R activation by a compound of the present disclosure was quantified by measuring cAMP increase in CHO cells stably expressing GLP-1R (MultiSpan product #C1267-1a). […] The cells were then incubated overnight at 37° C., 5% CO2. […] 1% BSA (Rockland Immunochemicals product #BSA-1000)). Following the medium change, the cells were incubated for 1 hour at 37° C., 5% CO2. The tested GLP-1 compound was added to the cells in a 10 point dose response followed by a 30 minutes incubation at 37° C., 5% CO2. cAMP concentration increase was then detected using Cisbio's cAMP Gs Dynamic Kit (product #62AM4PEC) according to the manufacturer's protocol. The response was plotted against the log of the agonist concentration and fitted to a sigmoidal equation to determine the EC50.

[1] = Microsomal stability (liver microsomal assay, mixed cofactors); predicted hepatic clearance; type: in vitro ADME; details: liver microsomes 1.0 mg protein/mL (+UDPGA +NADPH), 1 μM analyte, 37° C.; scaled with human liver weight and hepatic blood flow 1.3 L/hr/kg
Procedure: Metabolic stability of compounds was assessed using human or rat liver microsomal assays (Corning). In these assays, 10 nL of each analyte at a concentration of 1 mM in 100% DMSO was dispensed into a well of a polypropylene plates using the Echo 550 acoustic liquid dispenser (Labcyte®). Each plate contained 384 wells with a single analyte in each well.
A solution of human (Corning® Gentest™ Human Mixed Pooled Microsomes or rat (Corning® Gentest™ Rat [Sprague-Dawley] Pooled Liver Microsomes) liver microsomes at 2 mg/ml in 100 mM K2HPO4/KH2PO4 at pH 7. 4 was combined with alamethicin from Trichoderma viride (Sigma-Aldrich) 0.0225 mg/ml. The mixture was incubated on ice for 15 minutes. 5 μL of this mixture was added to individual wells following a 15 minute incubation at room temperature and supplemented with 5 μL NADPH Regenerating Solution of cofactors (Corning® Gentest™ UGT Reaction Mix) containing 100 mM K2HPO4/KH2PO4 at pH 7.4, 2.6 mM NADP+, 6.6 mM glucose-6-phosphate, 6.6 mM MgCl2, 0.8 U/mL glucose-6-phosphate dehydrogenase, 0.1 mM sodium citrate, and 6.8 mM uridine diphosphate-glucuronic acid. The final concentration of each analyte compound at the beginning of the reaction was 1 μM. The reactions were incubated at 37° C. and samples were collected at time points of 0, 5, 15, 30, 40, 50, 60, and 70 minutes for further analysis. Background data were collected using reactions without analyte compounds.
Upon collection of the sample time points, samples were quenched with 30 μL of a solution of 72% acetonitrile, 8% methanol, 0.1% formic acid, 19.9% water, and internal standard (IS). Reaction plates were spun in a centrifuge at speed of 4,000 rcf for 30 minutes at 4° C., following a dilution of the 10 μL quenched reaction into 40 μL de-ionized water, yielding assay plates.
Assay plates were analyzed using solid-state extraction coupled with quadrupole time-of-flight mass spectrometer, using Agilent QToF 6530 RapidFire 360 system, with C4 type A solid state cartridges. Analysis was performed in either positive or negative ionization modes. Mobile phases contained 0.1% formic acid in water for loading analytes onto solid state extraction cartridges and 0.1% formic acid in acetonitrile for elution into a mass spectrometer in positive ionization mode, or 0.1% acetic acid in water for loading and 0.1% acetic acid in acetonitrile for extraction in negative ionization mode. Peak-area ratios of integrated counts for individual compounds to IS were plotted as semi-logarithmic chart of log vs time. The initial linear portion of decay was fitted to a linear regression equation to derive the half-time of analyte decay.
Pharmacological parameters for an analyte compound metabolism were calculated using the following equations: […]
wherein concentration refers to the protein concentration (mg/ml) in the reaction.
This scales the in vitro intrinsic clearance up to the value that would be predicted for the entire mass of liver tissue (but with no restriction by blood flow). The value depends upon the size of the liver (species-dependent) and the yield of microsomal protein as appropriate (assumed to be species-independent).
Hepatic clearance will depend upon the inter-relationship of intrinsic clearance and hepatic blood flow and was predicted from in vitro data using a variety of approaches.
The hepatic extraction is reported as the predicted clearance expressed as a proportion of hepatic blood flow.

GLP-1R, sequence (P43220 24-463): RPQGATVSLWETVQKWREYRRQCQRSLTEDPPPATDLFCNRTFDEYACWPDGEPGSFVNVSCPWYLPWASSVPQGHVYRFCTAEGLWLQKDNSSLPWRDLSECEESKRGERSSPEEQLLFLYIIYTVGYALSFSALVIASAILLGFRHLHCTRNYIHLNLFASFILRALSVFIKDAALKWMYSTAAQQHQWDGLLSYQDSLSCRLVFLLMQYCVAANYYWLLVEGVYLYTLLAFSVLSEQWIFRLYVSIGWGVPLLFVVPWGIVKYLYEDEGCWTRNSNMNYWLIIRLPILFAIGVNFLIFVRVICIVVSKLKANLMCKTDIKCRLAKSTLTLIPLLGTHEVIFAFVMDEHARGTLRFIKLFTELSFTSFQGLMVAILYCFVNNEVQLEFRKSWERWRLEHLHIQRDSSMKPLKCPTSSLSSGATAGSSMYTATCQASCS

| EC50 (GLP-1R; cAMP increase, read-out: EC50) [nM] | Predicted Hepatic Clearance (Pred. Cl.) [1] [mL/min/kg] | Compound | EC50 (GLP-1R; EC50, cAMP increase) [nM] |
| --- | --- | --- | --- |
| 438 | 2.83 | N#Cc1ccc(C2Oc3cccc(-c4cc(F)c(Cc5nc6ccc(C(=O)O)cc6n5C[C@@H]5CCO5)c(F)c4)c3O2)c(F)c1 (single isomer, unassigned) [Example 41] |  |
| 6.3 | 3.17 | COCCn1c(Cc2c(F)cc(-c3cccc4c3OC(C)(c3ccc(C(F)(F)F)cc3F)O4)cc2F)nc2ccc(C(=O)O)cc21 (stereo not shown) [Example 58, 2-(2,6-difluoro-4-(2-(2-fluoro-4-(trifluoromethyl)phenyl)-2-methylbenzo[d][1, 3]dioxol-4-yl)benzyl)-1-(2-methoxyethyl)-1H-benzo[d]imidazole-6-carboxylic acid] |  |
| 530 | 7.5 | COCCn1c(Cc2ccc(-c3cccc4c3OC(c3ccccc3)C4)cc2F)nc2ccc(C(=O)O)cc21 (stereo not shown) [Example 7, 2-(2-fluoro-4-(2-phenyl-2,3-dihydrobenzofuran-7-yl)benzyl)-1-(2-methoxyethyl)-1H-benzo[d]imidazole-6-carboxylic acid] |  |
| 67 | 3.5 | COCCn1c(Cc2c(F)cc(-c3cccc4c3OC(C)(c3ccc(C#N)cc3F)O4)cc2F)nc2ccc(C(=O)O)cc21 (single isomer, unassigned) [Example 98, 2-(4-(2-(4-cyano-2-fluorophenyl)-2-methylbenzo[d][1, 3]dioxol-4-yl)-2,6-difluorobenzyl)-1-(2-methoxyethyl)-1H-benzo[d]imidazole-6-carboxylic acid] |  |
| 0.19 | 5 | CC1(c2ccc(Cl)cn2)Oc2cccc(-c3cc(F)c(Cc4nc5ccc(C(=O)O)cc5n4C[C@@H]4CCO4)cc3F)c2O1 (single isomer, unassigned) [Example 45] |  |
| 0.64 | 15.2 | CC1(c2ccc(Cl)cc2F)Oc2cccc(-c3cc(F)c(Cc4nc5c(F)cc(C(=O)O)cc5n4CC4(CC#N)CC4)c(F)c3)c2O1 (single isomer, unassigned) [Example 106, 2-(4-(2-(4-chloro-2-fluorophenyl)-2-methylbenzo[d][1, 3]dioxol-4-yl)-2,6-difluorobenzyl)-1-((1-(cyanomethyl)cyclopropyl)methyl)-4-fluoro-1H-benzo[d]imidazole-6-carboxylic acid] |  |
| 4.3 | 8 | CC1(c2ccc(Cl)cn2)Oc2ccc(F)c(-c3ccc(Cc4nc5ccc(C(=O)O)cc5n4C[C@@H]4CCO4)c(F)c3)c2O1 (stereo partly drawn) [Example 76, 2-(4-(2-(5-chloropyridin-2-yl)-5-fluoro-2-methylbenzo[d][1, 3]dioxol-4-yl)-2-fluorobenzyl)-1-(((S)-oxetan-2-yl)methyl)-1H-benzo[d]imidazole-6-carboxylic acid] |  |
| 1780 | 7.17 | COCCn1c(Cc2ccc(-c3cccc4c3OC(c3ccc(Cl)cn3)C4)cc2F)nc2ccc(C(=O)O)cc21 (stereo not shown) [Example 78, 2-(4-(2-(5-chloropyridin-2-yl)-2,3-dihydrobenzofuran-7-yl)-2-fluorobenzyl)-1-(2-methoxyethyl)-1H-benzo[d]imidazole-6-carboxylic acid] |  |
| 78 | 7.83 | COCCn1c(Cc2ccc(-c3cccc4c3OC(C)(c3ccc(Cl)cc3F)O4)s2)nc2ccc(C(=O)O)cc21 (stereo not shown) [Example 8, 2-((5-(2-(4-chloro-2-fluorophenyl)-2-methylbenzo[d][1, 3]dioxol-4-yl)thiophen-2-yl)methyl)-1-(2-methoxyethyl)-1H-benzo[d]imidazole-6-carboxylic acid] |  |
|  | 7.67 | COCCn1c(Cc2cc(F)c(-c3cccc4c3OC(C)(c3ccc(Cl)cn3)O4)cc2F)nc2ccc(C(=O)O)cc21 (stereo not shown) [Example 114, 2-[[4-[2-(5-chloro-2-pyridyl)-2-methyl-1,3-benzodioxol-4-yl]-2,5-difluoro-phenyl]methyl]-3-(2-methoxyethyl) benzimidazole-5-carboxylic acid] |  |
|  | 2.5 | CC1(c2ccc(Cl)cc2F)Oc2cccc(-c3ccc(Cc4nc5ccc(C(=O)O)cc5n4CC4(n5ccnn5)CC4)c(F)c3)c2O1 (stereo not shown) [Example 51, 1-((1-(1H-1,2,3-triazol-1-yl)cyclopropyl)methyl)-2-(4-(2-(4-chloro-2-fluorophenyl)-2-methylbenzo[d][1, 3]dioxol-4-yl)-2-fluorobenzyl)-1H-benzo[d]imidazole-6-carboxylic acid] |  |
| 1620 |  | COCCn1c(Cc2cc(-c3cccc4c3OC(C)(c3ccc(Cl)cc3F)O4)cs2)nc2ccc(C(=O)O)cc21 (stereo not shown) [Example 59, 2-((4-(2-(4-chloro-2-fluorophenyl)-2-methylbenzo[d][1, 3]dioxol-4-yl)thiophen-2-yl)methyl)-1-(2-methoxyethyl)-1H-benzo[d]imidazole-6-carboxylic acid] |  |
|  | 5.83 | COCCn1c(Cc2cc(F)c(-c3cccc4c3OC(C)(c3ccc(Cl)cc3F)O4)cc2F)nc2ccc(C(=O)O)cc21 (stereo not shown) [Example 113, 2-[[4-[2-(4-chloro-2-fluoro-phenyl)-2-methyl-1,3-benzodioxol-4-yl]-2,5-difluoro-phenyl]methyl]-3-(2-methoxyethyl) benzimidazole-5-carboxylic acid] |  |
| 20 |  | CC1(c2ccc(Cl)cc2F)Oc2cccc(-c3cc(F)c(Cc4nc5ccc(C(=O)O)cc5n4CCS(C)(=O)=O)c(F)c3)c2O1 (stereo not shown) [Example 82, 2-[[4-[2-(4-chloro-2-fluoro-phenyl)-2-methyl-1,3-benzodioxol-4-yl]-2,6-difluoro-phenyl]methyl]-3-(2-methylsulfonylethyl) benzimidazole-5-carboxylic acid] |  |

| Compound | EC50 (GLP-1R; cAMP increase, read-out: EC50) [nM] | Predicted Hepatic Clearance (Pred. Cl.) [1] [mL/min/kg] | EC50 (GLP-1R; EC50, cAMP increase) [nM] |
| --- | --- | --- | --- |
| COCCn1c(Cc2c(F)cc(-c3cccc4c3OC(C)(c3ccc(C(N)=O)cn3)O4)cc2F)nc2ccc(C(=O)O)cc21 (stereo not shown) [Example 67, 2-(4-(2-(5-carbamoylpyridin-2-yl)-2-methylbenzo[d][1, 3]dioxol-4-yl)-2,6-difluorobenzyl)-1-(2-methoxyethyl)-1H-benzo[d]imidazole-6-carboxylic acid] | 20 | 7.17 |  |
| CC1(c2ccc(Cl)cc2F)Oc2cccc(-c3cc(F)c(Cc4nc5ccc(C(=O)O)cc5n4C[C@@H]4CCO4)c(F)c3)c2O1 (single isomer, unassigned) [Example 47] |  | 3.17 | 0.07 |
| COCCn1c(Cc2ccc(-c3cccc4c3OC(C)(c3ccc(Cl)cc3F)O4)cc2F)nc2ccc(C(=O)O)cc21 (stereo not shown) [Example 80, 2-(4-(2-(4-chloro-2-fluorophenyl)-2-methylbenzo[d][1, 3]dioxol-4-yl)-2-fluorobenzyl)-1-(2-methoxyethyl)-1H-benzo[d]imidazole-6-carboxylic acid] | 11 | 4 |  |
| COCCn1c(Cc2ccc(-c3cccc4c3OC(C)(c3ccc(Cl)cc3F)O4)n(C)c2=O)nc2ccc(C(=O)O)cc21 (stereo not shown) [Example 87, 2-((6-(2-(4-chloro-2-fluorophenyl)-2-methylbenzo[d][1, 3]dioxol-4-yl)-1-methyl-2-oxo-1,2-dihydropyridin-3-yl)methyl)-1-(2-methoxyethyl)-1H-benzo[d]imidazole-6-carboxylic acid] | 1150 | 9 |  |
